What was measured:
mouse = test: Toxicity test (LD50); format: in vivo, ddY type mice; conditions: mice, oral and intraperitoneal
Protocol: The test was carried out by the oral dose and the intraperitoneal injection of each solution in 10 ddY type male mice and 10 ddY femal mice. The results after 72 hours from the administration were observed. Probit analysis was used for statistical treatment of mortality.

[1] = test system: patients having excessive urinary protein; conditions: 150 to 1800 mg/day, with or without additional medicines
Protocol: When used in combination, the additional medicines were dosed in the amount usual for each of such additional medicines.
The amount of urine protein was measured for the clinical tests. The elimination or remarkable degree of reduction of urine protein was considered to be effective.
The non-steroid anti-inflammatory agents such as Ibuprofen, Indomethacin, Azapropazone, and steroids such as Predonizolone and antibiotics such as Cephalexin, methyl chlorophenyl iso-oxazolyl penicillin were used as the additional medicines.

Aminonucleoside nephrose = test: Therapy for Aminonucleoside nephrose (urine and blood biochemical observations); format: in vivo, SD type male rats; conditions: 1000 mg/kg/day oral, 10 days
Protocol: SD type male rats (weight about 100 g) were fed in each individual room of a metabolism cage under the free water and feed supply.
The rats were classified as the normal group for eight rats, the renal disease group for eight rats and the therapy group for eight rats.
0.3% Aminoucleoside aqueous solution (hereinafter referring to as AN) was administrated by intramuscular injection at a dose of 0.3 ml per 100 g of the rat.
The administration was continued from the 1st day to the 14th day at one time per day.
The data in Tables are average value for eight rats in each group.
The difference between the renal disease group and the therapy group was significant. The symbol * means the existence of significant difference in 5% of the level of significance and the symbol (*) means the existence of significant difference in 5 to 1% of the level of significance. The symbol -- means non-significant difference.

[2] = test system: hetero antikidney serum nephritis; test: Therapy for hetero antikidney serum nephritis; format: in vivo, Wister type male rats; conditions: 1000 mg/kg/day oral
Protocol: Antikidney serum (rabbit) prepared in accordance with the Heymann method was intravenously injected into tail vein at a dose of 0.5 ml per 100 g of rat at one time per day.
In Table 3, the symbols for tissue observation mean the following conditions of tissues.
A: proliferation of polymorphs of glomeruli
C: thickning of the basement membrane of the glomerular capillaries
D: obliteration of the glomerular capillary loops
F: exudate in Bowman's subcapsule space
G: thickning of Bowman's capsule
H: crescent formation of glomeruli
I: proteinaeous fluid in the tubli
J: swelling of tublar epithelium
K: proliferation of interstitial tissue cells
In Table 4, the degree of lesions were rated as follows:
0: no lesion of tissue is found;
0.5: slight lesion of tissue is found;
1: clear sporadic or slight lesion of tissue is found;
3: inflamed or clear lesion of tissue is found.
The average of ratings for 5 rats in each group is shown.
The level of significance was considered as the same with those of Table 1.

[3] = average lesion rating 0-3 (3 inflamed or clear), normal 0, renal disease group 1.1, significance *
[4] = average lesion rating 0-3 (3 inflamed or clear), normal 0, renal disease group 1.7, significance *

SMILES: C[S+](C)CCC(N)C(=O)O (stereo not shown) [Methyl methionine sulfonium chloride]
- toxicity (mouse): low toxicity
- effective cases (elimination or remarkable reduction of urine protein) [1]: 32 cases among 45 patients
- Urine albumin (Aminonucleoside nephrose; normal 0.1, renal disease group 2.4, significance *): 1.6 g/dL
- Urine protein (Aminonucleoside nephrose; normal 0.6, renal disease group 5.2, significance *): 4.0 g/dL
- Serum albumin (Aminonucleoside nephrose; normal 2.60, renal disease group 0.49, significance *): 1.25 g/dL
- Serum K^+ (Aminonucleoside nephrose; normal 5.1, renal disease group 5.4, non-significant): 5.6 m Eq/l
- Serum total protein (Aminonucleoside nephrose; normal 6.48, renal disease group 3.60, significance *): 4.47 g/dL
- Urine albumin (Aminonucleoside nephrose; normal 6.6, renal disease group 196, significance *): 106 mg/day
- Urine pH (Aminonucleoside nephrose; normal 6.7, renal disease group 6.5, significance (*)): 6.2
- Urine amount (Aminonucleoside nephrose; normal 9.4, renal disease group 8.5, significance (*)): 6.9 mL/day
- Serum urea nitrogen (Aminonucleoside nephrose; normal 25.2, renal disease group 44.8, significance *): 23.8 mg/dL
- Urine protein (Aminonucleoside nephrose; normal 54, renal disease group 441, significance *): 294 mg/day
- Serum cholesterol (Aminonucleoside nephrose; normal 84.3, renal disease group 277, significance *): 149 mg/dL
- Serum Na^+ (Aminonucleoside nephrose; normal 134, renal disease group 135, non-significant): 134 m Eq/l
- Urine Na (Aminonucleoside nephrose; normal 160, renal disease group 54, significance *): 109 m Eq/l
- Serum glycose (Aminonucleoside nephrose; normal 169, renal disease group 135, non-significant): 138 mg/dL
- Weight (Aminonucleoside nephrose; normal 180, renal disease group 196, significance *): 176 g
- Urine K (Aminonucleoside nephrose; normal 230, renal disease group 204, non-significant): 210 m Eq/l
- Urine urea ([2]; 9 days, normal 6.3, renal disease group 121, non-significant): 104 mg/day
- Urea nitrogen in blood ([2]; 9 days, normal 23, renal disease group 25, non-significant): 24 mg/dL
- Observation of tissue F: exudate in Bowman's subcapsule space ([2]; average lesion rating 0-3 (3 inflamed or clear), normal 0, renal disease group 0, non-significant): 0
- Observation of tissue K: proliferation of interstitial tissue cells ([2]; average lesion rating 0-3 (3 inflamed or clear), normal 0, renal disease group 0.2, non-significant): 0.3
- Observation of tissue B: thrombus formation [2, 3]: 0.1
- Observation of tissue G: thickning of Bowman's capsule [2, 3]: 0
- Observation of tissue H: crescent formation of glomeruli [2, 3]: 0
- Observation of tissue C: thickning of the basement membrane of the glomerular capillaries [2, 4]: 0.4
- Observation of tissue D: obliteration of the glomerular capillary loops [2, 4]: 0.3
- Observation of tissue E: anemia ([2]; average lesion rating 0-3 (3 inflamed or clear), normal 0, renal disease group 2.2, significance *): 0.1
- Observation of tissue J: swelling of tublar epithelium ([2]; average lesion rating 0-3 (3 inflamed or clear), normal 0.5, renal disease group 1.6, non-significant): 1.3
- Observation of tissue I: proteinaeous fluid in the tubli ([2]; average lesion rating 0-3 (3 inflamed or clear), normal 0.6, renal disease group 1.8, significance (*)): 0.8
- Observation of tissue A: proliferation of polymorphs of glomeruli ([2]; average lesion rating (0 none, 0.5 slight, 1 clear sporadic or slight, 3 inflamed or clear), normal 0, renal disease group 1.4, significance (*)): 0.5

Reference: patent publication US4122189A, “Medicine for renal diseases” (priority 1976, dated 1978)
